From patent US20100273772A1, “Bisaryl Alkynylamides as Negative Allosteric Modulators of Metabotropic Glutamate Receptor 5 (MGLUR5)” (Wyeth LLC, priority 2009, published 2010)

Legend:
[1] = molecular target: T1, rat mGluR5 receptor (Rattus norvegicus, UniProt P31424); test: [3H]-MPEP binding HEK-293 cell membranes expressing a rat mGluR5 receptor; settings: displacement of 4 nM [3H]-MPEP, HEK-293 cell membranes expressing rat mGluR5, 60 minute at room temperature; read-out: mGluR5 Ligand Binding DR Ki
T1 construct: expressed in transfected cells; host or cells: HEK-293
Protocol: TITLE: [^3H]-MPEP binding HEK-293 cell membranes expressing a rat mGluR5 receptor. PURPOSE: To identify high affinity compounds at the rat mGluR5 receptor based on their ability to displace the mGluR5 negative allosteric modulator, MPEP.
mGluR5 expressing HEK-293 cells are scraped off the plate, transferred to centrifuge tubes, and washed twice by centrifugation (2000 rpm for 10 min., 4° C.) in buffer (50 mM Tris pH 7.5). The resulting pellets are aliquoted and placed at −80° C. On the day of assay, the cells are thawed on ice, and resuspended in buffer. The binding assay is performed in a 96 well microtiter plate in a total volume of 250 μL. Non-specific binding is determined in the presence of 10 μM MPEP. Binding reaction includes a final radioligand [^3H]-MPEP concentration of 4 nM and 12-25 ug membrane protein per well. Following a 60 minute incubation at room temperature, the reaction is terminated by the addition of ice cold buffer and rapid filtration through a GF/B filter presoaked for 30 minutes in 0.5% PEI. Compounds are initially tested in a single point assay to determine percent inhibition at 10 μM. Subsequently, Ki values are determined for compounds defined to be active.
% inhibition and Ki values generated by GraphPad Prism and Excel Fit. IC50 values are calculated using GraphPad by fitting to a 1 or 2 site-binding model. Ki values are calculated from the apparent IC50 values using the Cheng-Prussof equation:
(§1) where [L]=concentration of free radioligand and Kd=dissociation constant of radioligand for the receptor. TITLE: Identification of metabotropic glutamate receptor 5 antagonists using a stable, sensitive fluorescence-based screening system PURPOSE: The aim of the research presented here was to develop a robust functional assay to measure changes in intracellular calcium, with the goal of identifying potent mGluR5 antagonists.

[2] = molecular target: T2, metabotropic glutamate receptor 5 (Rattus norvegicus, UniProt P31424); test: FLIPR Calcium 3 fluorescence-based functional assay of intracellular calcium, mGluR5 antagonist activity; assay type: cell-based; settings: inhibition of glutamate (EC90, ~50 uM) stimulated calcium levels, mGluR5 HEK-293 cells; read-out: mGluR5 FLIPR MP Antagonist DR IC50
T2 construct: expressed in transfected cells; host or cells: HEK-293
Source text: as §1
The FLIPR Calcium 3 Assay Kit is designed to work with many cell types, both adherent and non-adherent. Optimal cell conditions for the FLIPR Calcium 3 Assay Kit require the creation of a confluent cell monolayer before placing the plates in FLIPR or FlexStation. In general, we start with 50,000 mGluR5 HEK-293 cells/well for a 96-well plate. For adherent cells, seeding cells overnight with a plating volume of 100 μL/well worked for 96-well plates.
Remove cell plates from the incubator. Remove the supernatant medium. Add 180 ul of Loading Buffer to each well (for 96-well plates). HBSS buffer component B) pipette 100 mL of 10× Hank's Balanced Salt Solution and 20 mL of 1M Hepes buffer
Incubate cell plates for 1 hour at 37° C. and then keep the plates at room temperature until used.
After incubation, transfer the plates directly to FLIPR and begin the calcium assay as described in the FLIPR system manual. For a signal test, a starting average count of ˜10,000 is recommended. Recommended experimental setup parameters are as follows. Faster addition speeds can lead to better mixing of compounds and lower signal variance across the plate.
Test or reference compound is added to the 96-well plate (manually). […] Relative Fluorescence Units (RFUs) are recorded over a given time period (stated above) depending on the platform system used.
For antagonists, results are expressed as % inhibition of glutamate stimulated Calcium levels. IC50 values were calculated by Prism GraphPad using a 4-parameter logistic equation. IC50 values are calculated using GraphPad by fitting to a 1 site-model.

T2 sequence (P31424 21-1203): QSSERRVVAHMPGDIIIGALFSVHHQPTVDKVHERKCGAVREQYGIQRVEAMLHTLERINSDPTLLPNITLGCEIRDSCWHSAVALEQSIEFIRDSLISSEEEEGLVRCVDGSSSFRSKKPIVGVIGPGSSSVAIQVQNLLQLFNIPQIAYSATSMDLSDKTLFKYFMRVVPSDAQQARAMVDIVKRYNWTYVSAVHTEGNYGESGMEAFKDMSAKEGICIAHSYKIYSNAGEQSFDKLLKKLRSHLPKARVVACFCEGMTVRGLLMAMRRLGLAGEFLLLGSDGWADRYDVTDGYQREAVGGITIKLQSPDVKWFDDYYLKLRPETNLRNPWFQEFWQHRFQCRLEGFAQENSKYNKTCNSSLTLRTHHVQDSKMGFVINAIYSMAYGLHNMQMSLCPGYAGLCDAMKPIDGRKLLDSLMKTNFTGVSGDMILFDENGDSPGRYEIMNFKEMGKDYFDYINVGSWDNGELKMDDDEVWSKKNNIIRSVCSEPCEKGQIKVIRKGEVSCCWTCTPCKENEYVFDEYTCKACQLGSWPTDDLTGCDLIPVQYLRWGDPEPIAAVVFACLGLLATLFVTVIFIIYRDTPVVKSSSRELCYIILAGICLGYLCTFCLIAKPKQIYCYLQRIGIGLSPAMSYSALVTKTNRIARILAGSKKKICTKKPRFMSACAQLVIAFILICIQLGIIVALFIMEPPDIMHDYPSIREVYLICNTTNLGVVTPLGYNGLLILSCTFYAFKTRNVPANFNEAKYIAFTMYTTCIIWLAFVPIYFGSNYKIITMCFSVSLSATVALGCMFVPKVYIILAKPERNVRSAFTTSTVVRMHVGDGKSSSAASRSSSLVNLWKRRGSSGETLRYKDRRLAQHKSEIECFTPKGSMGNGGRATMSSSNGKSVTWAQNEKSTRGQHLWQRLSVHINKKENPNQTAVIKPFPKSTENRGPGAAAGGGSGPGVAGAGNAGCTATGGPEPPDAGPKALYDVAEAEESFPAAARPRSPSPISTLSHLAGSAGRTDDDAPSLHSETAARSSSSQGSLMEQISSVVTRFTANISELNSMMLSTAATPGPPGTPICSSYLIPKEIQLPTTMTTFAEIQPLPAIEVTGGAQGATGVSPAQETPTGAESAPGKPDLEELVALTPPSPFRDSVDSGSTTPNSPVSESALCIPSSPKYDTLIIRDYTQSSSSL
T1 sequence (P31424 21-1203): as above

Compound | Ki [1] | IC50 [2]
COc1ccc(C(=O)N2Cc3cnc(C)c(N)c3C2)cc1C#Cc1ccccn1 [Example 44, 2-[4-methoxy-3-(pyridin-2-ylethynyl)benzoyl]-6-methyl-2,3-dihydro-1H-pyrrolo[3,4-c]pyridin-7-amine] | 20 nM | 14 nM
COc1ccc(C(=O)N2Cc3cc(Cl)c(Cl)cc3C2)cc1C#Cc1ccccn1 [Example 34, 5,6-dichloro-2-[4-methoxy-3-(pyridin-2-ylethynyl)benzoyl]isoindoline] | 17 nM | 1450 nM
COc1ccc(C(=O)N2CCc3c(Cl)cccc3C2)cc1C#Cc1ccccn1 [Example 10, 5-chloro-2-[4-methoxy-3-(pyridin-2-ylethynyl)benzoyl]-1,2,3,4-tetrahydroisoquinoline] | 1 nM | 50 nM
Cc1ccc(C(=O)N2CCc3ccccc3C2)cc1C#Cc1ccccn1 [Example 82, 2-[4-Methyl-3-(pyridin-2-ylethynyl)benzoyl]-1,2,3,4-tetrahydroisoquinoline] | 1 nM | 27 nM
O=C(c1ccc(F)c(C#Cc2ccccn2)c1)N1Cc2ccccc2C1 [Example 74, 2-[4-fluoro-3-(pyridin-2-ylethynyl)benzoyl]isoindoline] | 11 nM | 62 nM
COc1ccc(C(=O)N2CCc3cccc(OC)c3C2)cc1C#Cc1ccccn1 [Example 21, 8-methoxy-2-[4-methoxy-3-(pyridin-2-ylethynyl)benzoyl]-1,2,3,4-tetrahydroisoquinoline] | 3 nM | 34 nM
COc1ccc(C(=O)N2CCc3c(OC)ccc(OC)c3C2)cc1C#Cc1ccccn1 [Example 19, 5,8-dimethoxy-2-[4-methoxy-3-(pyridin-2-ylethynyl)benzoyl]-1,2,3,4-tetrahydroisoquinoline] | 6 nM | 30 nM
COc1ccc(C(=O)N2Cc3cccc(F)c3C2)cc1C#Cc1ccccn1 [Example 36, 4-fluoro-2-[4-methoxy-3-(pyridin-2-ylethynyl)benzoyl]isoindoline] | 6 nM | 25 nM
COc1ccc(C(=O)N2CCc3cccc(C(F)(F)F)c3C2)cc1C#Cc1ccccn1 [Example 5, 2-[4-methoxy-3-(pyridin-2-ylethynyl)benzoyl]-8-(trifluoromethyl)-1,2,3,4-tetrahydroisoquinoline] | 2 nM | 151 nM
COc1ccc(C(=O)N2CCc3cccnc3C2)cc1C#Cc1ccccn1 [Example 50, 7-{[4-methoxy-3-(pyridin-2-ylethynyl)phenyl]carbonyl}-5,6,7,8-tetrahydro-1,7-naphthyridine] | 17 nM | 17 nM
Cc1ccc(C(=O)N2CCc3c(Cl)cccc3C2)cc1C#Cc1ccccn1 [Example 84, 5-chloro-2-[4-methyl-3-(pyridin-2-ylethynyl)benzoyl]-1,2,3,4-tetrahydroisoquinoline] | 0.3 nM | 48 nM
COc1ccc(C(=O)N2CCc3ncc(C(F)(F)F)cc3C2)cc1C#Cc1ccccn1 [Example 52, 6-{[4-methoxy-3-(pyridin-2-ylethynyl)phenyl]carbonyl}-3-(trifluoromethyl)-5,6,7,8-tetrahydro-1,6-naphthyridine] | 29 nM | 49 nM
O=C(c1ccc(Cl)c(C#Cc2ccccn2)c1)N1CCc2c(Cl)cccc2C1 [Example 69, 5-chloro-2-{[4-chloro-3-(pyridin-2-ylethynyl)phenyl]carbonyl}-1,2,3,4-tetrahydroisoquinoline] | 0.1 nM | 134 nM
COc1ccc(C(=O)N2Cc3cccnc3C2)cc1C#Cc1ccccn1 [Example 54, 6-{[4-methoxy-3-(pyridin-2-ylethynyl)phenyl]carbonyl}-6,7-dihydro-5H-pyrrolo[3,4-b]pyridine] | 26 nM | 8 nM
O=C(c1ccc(Cl)c(C#Cc2ccccn2)c1)N1CCc2[nH]ncc2C1 [Example 66, 5-{[4-chloro-3-(pyridin-2-ylethynyl)phenyl]carbonyl}-4,5,6,7-tetrahydro-1H-pyrazolo[4,3-c]pyridine] | 4 nM | 11 nM
O=C(c1ccc(C(F)(F)F)c(C#Cc2ccccn2)c1)N1CCc2c(Cl)cccc2C1 [Example 95, 5-Chloro-2-{[3-(pyridin-2-ylethynyl)-4-(trifluoromethyl)phenyl]carbonyl}-1,2,3,4-tetrahydroisoquinoline] | 4 nM | 163 nM
COc1ccc(C(=O)N2CCc3c(F)cccc3C2)cc1C#Cc1ccccn1 [Example 3, 5-fluoro-2-[4-methoxy-3-(pyridin-2-ylethynyl)benzoyl]-1,2,3,4-tetrahydroisoquinoline] | 2 nM | 44 nM
O=C(c1ccc(Cl)c(C#Cc2ccccn2)c1)N1CCc2cccnc2C1 [Example 62, 7-{[4-chloro-3-(pyridin-2-ylethynyl)phenyl]carbonyl}-5,6,7,8-tetrahydro-1,7-naphthyridine] | 5 nM | 9 nM
COc1ccc(C(=O)N2CCc3ccccc3C2)cc1C#Cc1ccccn1 [Example 2, 2-[4-methoxy-3-(pyridin-2-ylethynyl)benzoyl]-1,2,3,4-tetrahydroisoquinoline] | 3 nM | 24 nM
Cc1ccc(C(=O)N2CCc3ccc(Cl)cc3C2)cc1C#Cc1ccccn1 [Example 83, 7-chloro-2-[4-methyl-3-(pyridin-2-ylethynyl)benzoyl]-1,2,3,4-tetrahydroisoquinoline] | 0.3 nM | 30 nM
COc1ccc(C(=O)N2Cc3cnc(C)c(OC)c3C2)cc1C#Cc1ccccn1 [Example 45, 7-methoxy-2-[4-methoxy-3-(pyridin-2-ylethynyl)benzoyl]-6-methyl-2,3-dihydro-1H-pyrrolo[3,4-c]pyridine] | 31 nM | 35 nM
Cc1ccc(C(=O)N2CCc3cccnc3C2)cc1C#Cc1ccccn1 [Example 86, 7-{[4-Methyl-3-(pyridin-2-ylethynyl)phenyl]carbonyl}-5,6,7,8-tetrahydro-1,7-naphthyridine] | 11 nM | 8 nM
COc1ccc(C(=O)N2Cc3ccc(C)cc3C2)cc1C#Cc1ccccn1 [Example 32, 2-[4-methoxy-3-(pyridin-2-ylethynyl)benzoyl]-5-methylisoindoline] | 3 nM | 42 nM
COc1ccc(C(=O)N2Cc3ccccc3C(S(=O)(=O)N3CCS(=O)(=O)CC3)C2)cc1C#Cc1ccccn1 (centres unmarked) [Example 25, 4-[(1,1-dioxidothiomorpholin-4-yl)sulfonyl]-2-[4-methoxy-3-(pyridin-2-ylethynyl)benzoyl]-1,2,3,4-tetrahydroisoquinoline] | 70 nM | 97 nM
CCOc1ccc(C(=O)N2CCc3c(Cl)cccc3C2)cc1C#Cc1ccccn1 [Example 77, 5-chloro-2-[4-ethoxy-3-(pyridin-2-ylethynyl)benzoyl]-1,2,3,4-tetrahydroisoquinoline] | 1 nM | 41 nM
O=C(c1ccc(F)c(C#Cc2ccccn2)c1)N1CCc2ccc(Cl)cc2C1 [Example 72, 7-chloro-2-[4-fluoro-3-(pyridin-2-ylethynyl)benzoyl]-1,2,3,4-tetrahydroisoquinoline] | 2 nM | 29 nM
COc1ccc(C(=O)N2CCc3ncc(Br)cc3C2)cc1C#Cc1ccccn1 [Example 14, 3-bromo-6-[4-methoxy-3-(pyridin-2-ylethynyl)benzoyl]-5,6,7,8-tetrahydro-1,6-naphthyridine] | 8 nM | 51 nM
COc1ccc(C(=O)N2CCc3[nH]ncc3C2)cc1C#Cc1ccccn1 [Example 53, 5-{[4-methoxy-3-(pyridin-2-ylethynyl)phenyl]carbonyl}-4,5,6,7-tetrahydro-1H-pyrazolo[4,3-c]pyridine] | 27 nM | 4 nM
